In this assay the target is T1, recombinant human Muscarinic M1 receptor (Homo sapiens, UniProt P11229).
T1 sequence (P11229 1-460): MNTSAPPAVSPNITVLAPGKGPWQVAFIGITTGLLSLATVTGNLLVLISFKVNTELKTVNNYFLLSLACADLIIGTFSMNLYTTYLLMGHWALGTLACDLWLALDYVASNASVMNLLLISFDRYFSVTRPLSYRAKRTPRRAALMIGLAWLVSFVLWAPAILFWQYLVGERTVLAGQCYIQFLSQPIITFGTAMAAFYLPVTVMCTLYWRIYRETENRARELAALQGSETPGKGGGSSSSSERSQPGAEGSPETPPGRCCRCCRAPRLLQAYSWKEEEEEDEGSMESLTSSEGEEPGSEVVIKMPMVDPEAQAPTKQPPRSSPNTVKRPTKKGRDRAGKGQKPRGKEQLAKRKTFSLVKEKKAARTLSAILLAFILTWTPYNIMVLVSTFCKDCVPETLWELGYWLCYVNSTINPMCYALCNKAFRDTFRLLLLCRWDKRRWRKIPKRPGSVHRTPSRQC
Description: Allosteric potency EC50 for Muscarinic M1 receptor, CHO pCRE-Luc reporter cell-based assay with EC20 of acetylcholine. The following applies: CHO cells, human M1, luciferase reporter, in presence of EC20 of acetylcholine, 4 h. The procedure:
Determination of allosteric potency EC50 values for Muscarinic M1 receptor:
A stable CHO cell line expressing recombinant human Muscarinic M1 receptor and pCRE-Luc reporter system was used for cell-based assay. The assay offers a non-radioactive based approach to determine binding of a compound to GPCRs. In this specific assay, the level of intracellular cyclic AMP which is modulated by activation or inhibition of the receptor is measured. The recombinant cells harbor luciferase reporter gene under the control of cAMP response element.
The above cells were grown in 96 well clear bottom white plates in Hams F12 medium containing 10% fetal bovine serum (FBS). Prior to the addition of compounds or standard agonist, cells were serum starved overnight. Increasing concentrations of test compounds were added along with EC20 of acetylcholine in OptiMEM medium to the cells. The incubation was continued at 37° C. in CO2 incubator for 4 h. Medium was removed and cells were washed with phosphate buffered saline. The cells were lysed and luciferase activity was measured in a Luminometer. Luminescence counts in each concentrations of test item were normalized to the acetylcholine induced maximum response and the data was analyzed using Graphpad software. EC50 values of the compounds were defined as the concentration required in stimulating the luciferase activity by 50% in presence of EC20 of acetylcholine.

For the compound `Cc1c(Cc2ccc(Cl)nc2)cc(C(=O)NC2CCOC[C@@H]2O)c2ncccc12` (stereo partly drawn) [Example 3, N-(cis-3S,4S-3-Hydroxytetrahydropyran-4-yl)-6-(2-chloropyridin-5-ylmethyl)-5-methylquinoline-8-carboxamide], the EC50 stood at 1240 nM.

Turning to `Cc1c(Cc2ccnc(F)c2)cc(C(=O)N[C@H]2CCCC[C@@H]2O)c2ncccc12` [Example 4, N-(cis-1S,2S-2-Hydroxycyclohexyl)-6-(2-fluoropyridin-4-ylmethyl)-5-methylquinoline-8-carboxamide], the EC50 came out at 960 nM.

For `Cc1c(Cc2ccccc2F)cc(C(=O)N[C@H]2CCCC[C@@H]2O)c2ncccc12` [Example 5, N-(cis-1S,2S-2-Hydroxycyclohexyl)-6-(2-fluorobenzyl)-5-methylquinoline-8-carboxamide], the EC50 is 2340 nM.

On to `Cc1c(Cc2ccc(-c3cnn(C)c3)nc2)cc(C(=O)N[C@H]2CCCC[C@@H]2O)c2ncccc12` [Example 7, N-(cis-1S,2S-2-Hydroxycyclohexyl)-6-[2-(1-methyl-1H-pyrazol-4-yl)-pyridin-5-ylmethyl]-5-methylquinoline-8-carboxamide], for which the EC50 stood at 232 nM.

With `Cc1c(Cc2ccc(-c3cnn(C)c3)c(F)c2)cc(C(=O)N[C@H]2CCCC[C@@H]2O)c2ncccc12` [Example 9, N-(cis-1S,2S-2-Hydroxycyclohexyl)-6-[3-fluoro-4-(1-methyl-1H-pyrazol-4-yl)-benzyl]-5-methylquinoline-8-carboxamide], the EC50 was found to be 185 nM.

Turning to `Cc1c(Cc2ccc(-n3cccn3)cc2)cc(C(=O)N[C@H]2CCCC[C@@H]2O)c2ncccc12` [Example 10, N-(cis-1S,2S-2-Hydroxycyclohexyl)-6-(4-pyrazol-1-yl-benzyl)-5-methylquinoline-8-carboxamide], the EC50 was determined as 157 nM.

Turning to `Cc1c(Cc2ccc(-c3cscn3)cc2)cc(C(=O)N[C@H]2CCCC[C@@H]2O)c2ncccc12` [Example 12, N-(cis-1S,2S-2-Hydroxycyclohexyl)-6-(4-thiazol-4-yl-benzyl)-5-methylquinoline-8-carboxamide], the EC50 was 258 nM.

Consider `Cc1c(Cc2ccc(-c3cscn3)cc2)cc(C(=O)N[C@H]2CCOC[C@@H]2O)c2ncccc12` [Example 13, N-(cis-3S,4S-3-Hydroxytetrahydropyran-4-yl)-6-(4-thiazol-4-yl-benzyl)-5-methylquinoline-8-carboxamide], for which the half-maximal effective concentration (EC50) was found to be 249 nM.

On to `Cc1c(Cc2ccc(-c3cnn(C)c3)cc2)cc(C(=O)N[C@H]2CCCC[C@@H]2O)c2c1NCCO2` [Example 16, N-(cis-1S,2S-2-Hydroxycyclohexyl)-6-[4-(1-methyl-1H-pyrazol-4-yl)-benzyl]-5-methyl-3,4-dihydro-2H-benzo[1,4]oxazine-8-carboxamide], for which the EC50 is 798 nM.

As to `Cc1c(Cc2ccc(-c3cnn(C)c3)cc2)cc(C(=O)N[C@H]2CCCC[C@@H]2O)c2nccn12` [Example 18, N-(cis-1S,2S-2-Hydroxycyclohexyl)-5-methyl-6-[4-(1-methyl-1H-pyrazol-4-yl)-benzyl]-imidazo[1,2-a]pyridine-8-carboxamide], the EC50 came to 248 nM.

Regarding `Cc1c(Cc2ccc(-n3cccn3)cc2)cc(C(=O)N[C@H]2CCCC[C@@H]2O)c2nccn12` [Example 19, N-(cis-1S,2S-2-Hydroxycyclohexyl)-5-methyl-6-(4-pyrazol-1-yl-benzyl)-imidazo[1,2-a]pyridine-8-carboxamide], the EC50 was found to be 178 nM.

With `Cc1c(Cc2ccc(-c3cnn(C)c3)cc2F)cc(C(=O)N[C@H]2CCCC[C@@H]2O)c2nccn12` [Example 20, N-(cis-1S,2S-2-Hydroxycyclohexyl)-5-methyl-6-[2-fluoro-4-(1-methyl-1H-pyrazol-4-yl)-benzyl]-imidazo[1,2-a]pyridine-8-carboxamide], the EC50 is 28 nM.

As to `Cn1cc(-c2ccc(Cc3cc(C(=O)N[C@H]4CCCC[C@@H]4O)c4nccn4c3)c(F)c2F)cn1` [Example 21, N-(cis-1S,2S-2-Hydroxycyclohexyl)-6-[2,3-difluoro-4-(1-methyl-1H-pyrazol-4-yl)-benzyl]-imidazo[1,2-a]pyridine-8-carboxamide], the EC50 was found to be 1050 nM.

For `O=C(N[C@H]1CCCC[C@@H]1O)c1cc(Cc2cccc(F)c2F)cn2ccnc12` [Example 22, N-(cis-1S,2S-2-Hydroxycyclohexyl)-6-(2.3-difluorobenzyl)-imidazo[1,2-a]pyridine-8-carboxamide], the EC50 was determined as 3820 nM.

For `O=C(N[C@H]1CCCC[C@@H]1O)c1cc(Cc2ccc(-c3cscn3)cc2)cn2ccnc12` [Example 23, N-(cis-1S,2S-2-Hydroxycyclohexyl)-6-(4-thiazol-4-yl-benzyl)-imidazo[1,2-a]pyridine-8-carboxamide], the EC50 stood at 308 nM.

Regarding `O=C(N[C@H]1CCCC[C@@H]1O)c1cc(Cc2ccc(-c3ccccc3)cc2)cn2ccnc12` [Example 24, N-(cis-1S,2S-2-Hydroxycyclohexyl)-6-(4-phenyl-benzyl)-imidazo[1,2-a]pyridine-8-carboxamide], the EC50 came to 3910 nM.

As for `Cn1cc(-c2ccc(Cc3cc(C(=O)N[C@H]4CCCC[C@@H]4O)c4nccn4c3)cc2)cn1` [Example 25, N-(cis-1S,2S-2-Hydroxycyclohexyl)-6-[4-(1-methyl-1H-pyrazol-4-yl)-benzyl]-imidazo[1,2-a]pyridine-8-carboxamide], the EC50 was found to be 444 nM.

For the compound `Cn1cc(-c2ccc(Cc3cc(C(=O)N[C@H]4CCCC[C@@H]4O)c4nccn4c3)c(F)c2)cn1` [Example 26, N-(cis-1S,2S-2-Hydroxycyclohexyl)-6-[2-fluoro-4-(1-methyl-1H-pyrazol-4-yl)-benzyl]-imidazo[1,2-a]pyridine-8-carboxamide], the EC50 is 3340 nM.

In the case of `Cc1c(Cc2ccc(-n3cccn3)cc2)cc(C(=O)N[C@H]2CCCC[C@@H]2O)c2nc[nH]c12` [Example 27, N-(cis-1S,2S-2-Hydroxycyclohexyl)-7-methyl-6-(4-pyrazol-1-yl-benzyl)-1H-benzimidazole-4-carboxamide], the EC50 worked out at 357 nM.

In the case of `Cc1c(Cc2ccc(-c3cnn(C)c3)cc2)cc(C(=O)N[C@H]2CCCC[C@@H]2O)c2nc[nH]c12` [Example 28, N-(cis-1S,2S-2-Hydroxycyclohexyl)-7-methyl-6-[4-(1-methyl-1H-pyrazol-4-yl)-benzyl]-1H-benzimidazole-4-carboxamide], the concentration for a half-maximal effect (EC50) came to 105 nM.

`Cn1cc(-c2ccc(Cc3cc(C(=O)N[C@@H]4CCCC[C@H]4O)c4nc[nH]c4c3)cc2)cn1` [Example 29, N-(cis-1S,2S-2-Hydroxycyclohexyl)-6-[4-(1-methyl-1H-pyrazol-4-yl)-benzyl]-1H-benzimidazole-4-carboxamide]: the EC50 was determined as 449 nM.

For `Cc1c(Cc2ccc(-c3cnn(C)c3)cc2F)cc(C(=O)N[C@@H]2CCCC[C@H]2O)c2nc[nH]c12` [Example 30, N-(cis-1S,2S-2-Hydroxycyclohexyl)-7-methyl-6-[2-fluoro-4-(1-methyl-1H-pyrazol-4-yl)-benzyl]-1H-benzimidazole-4-carboxamide], the concentration giving a half-maximal response (EC50) was found to be 151 nM.

Take `Cc1c(Cc2cccnc2Cl)cc(C(=O)N[C@@H]2CCCC[C@H]2O)c2nc[nH]c12` [Example 31, N-(cis-1S,2S-2-Hydroxycyclohexyl)-7-methyl-6-[2-chloropyridin-3-ylmethyl]-1H-benzimidazole-4-carboxamide]: the EC50 was found to be 2820 nM.

With `Cc1c(Cc2ccc(-c3cscn3)cc2)cc(C(=O)N[C@@H]2CCCC[C@H]2O)c2nc[nH]c12` [Example 32, N-(cis-1S,2S-2-Hydroxycyclohexyl)-7-methyl-6-[4-(thiazol-4-yl)-benzyl]-1H-benzimidazole-4-carboxamide], the EC50 amounted to 516 nM.

As for `Cc1c(Cc2cccc(F)c2F)cc(C(=O)N[C@@H]2CCCC[C@H]2O)c2nc[nH]c12` [Example 33, N-(cis-1S,2S-2-Hydroxycyclohexyl)-7-methyl-6-[2,3-difluorobenzyl]-1H-benzimidazole-4-carboxamide], the 50% effective concentration (EC50) amounted to 3660 nM.

Consider `Cc1c(Cc2ccc(F)c(F)c2)cc(C(=O)N[C@@H]2CCCC[C@H]2O)c2nc[nH]c12` [Example 34, N-(cis-1S,2S-2-Hydroxycyclohexyl)-7-methyl-6-[3,4-difluorobenzyl]-1H-benzimidazole-4-carboxamide], for which the EC50 was 2280 nM.

Regarding `Cc1c(Cc2ccc(-c3cnn(C)c3)nc2)cc(C(=O)N[C@@H]2CCCC[C@H]2O)c2nc[nH]c12` [Example 35, N-(cis-1S,2S-2-Hydroxycyclohexyl)-7-methyl-6-[6-(1-methyl-1H-pyrazol-4-yl)-pyridin-3-ylmethyl]-1H-benzimidazole-4-carboxamide], the EC50 turned out to be 237 nM.

(Values after patent publication US11278530B2, “Polycyclic amides as muscarinic M1 receptor positive allosteric modulators” (SUVEN LIFE SCIENCES LIMITED, priority 2017, dated 2022).)
